Like-named read-outs stand apart in the source and are kept apart here.
Legend:
[1] = Plasma and total brain concentrations at 1 h post single oral administration to female C57BL/6 mice; type: in vivo; settings: mouse, 10 mg/kg oral gavage; for Kp at 1 h: brain/plasma, read-out: brain to plasma ratio
Experimental: The appropriate amount of test article was dissolved 10% dimethylacetamide (DMA)/90% (20% hydroxypropyl-β-cyclodextrin (HP-B-CD) w/v in water to obtain a final concentration of 1 mg/mL for oral dosing. Sonication, vortex, and homogenization was used as needed. Three female C57BL/6 mice aged 7-9 weeks (20-30 grams) were dosed by oral gavage 10 mg/kg solution of the test article.
Concentrations of test compounds in the plasma and brain samples (use plasma and brain homogenate standard curve for all samples appropriately) were analyzed using LC-MS/MS. Compounds having a brain-to-plasma ratio of greater than 0.2 were considered brain penetrant.

[2] = test system: BTK in RAMOS B cells; test: Assay to determine BTK activity in RAMOS B cells (anti-IgM, FLIPR Calcium 6); type: cell-based; settings: anti-IgM EC80, calcium readout
Experimental: On the day before assay, Ramos B cells were plated in plating medium (RPMI1640 medium containing 1% FBS and 1× pencillin-streptomycin). On the day of the assay, 2× dye solution was prepared following the manual of the FLIRP Calcium 6 Assay Kit: Dilute the dye with assay buffer (20 mM HEPES in IX HBSS, pH7.4); Add probenecid to the final concentration of 5 mM; vortex vigorously for 1-2 minutes. Cells were collected by centrifuging, and the pellet was re-suspended in plating medium. After counting, cells were re-suspended at a density of 3×10^6/ml in plating medium. Equal volume of 2× dye solution was added to the cell suspension. Cells were then plated at 20 μl/well into a 384-well poly-D-lysine coated plate. Plate was centrifuged at 1000 rpm for 3 minutes and then incubated at 37° C. for 2 hours followed by an additional 15-minute incubation at 25° C. Compounds were prepared at 3× concentration in dilution buffer (20 mM HEPES and 0.1% BSA in 1×HBSS, pH 7.4). Serially diluted compound was transferred from source plate to a 384-well compound plate by using an Echo 550 (Labcyte). 20 μl/well compound dilution buffer was added to the compound plate and mixed on plate shaker for 2 mins. 4× EC80 of Anti-IgM (Jackson ImmunoResearch) was prepared in dilution buffer and 20 μl/well was added to a new 384-well compound plate. After 60 mins of incubation at 25° C. in the dark; cell plate, compound plate containing 4×EC80 of anti-IgM and FLIPR tips were placed into FLIPR (Molecular Devices). 10 ul/well of 4×EC80 anti-IgM was transferred to the cell plate by FLIPR. Plates were read for 160 sec with 1 sec interval.

[3] = target: T1, BTK (Homo sapiens, UniProt Q06187); test: Assay to determine activity against BTK; type: biochemical; settings: 1 mM ATP, 2 nM BTK, 90 minutes at room temperature
T1 construct: purchased Cama
Experimental: Solutions of compounds (test or control) in DMSO were prepared at the desired concentrations, and serially diluted to 11 concentrations by 3-fold dilution in 384pp-plate using TECAN EVO200. 20 nL of stock were transferred to 384 plate using Echo550. DMSO was used as vehicle control.
(BTK was obtained from Cama; FLPeptide2 was obtained from PerkinElmer and Ibrutinib was obtained from Selleck.) 5 μL of ATP solution were added to each well, followed by addition of 15 μL of BTK solution to initiate the reaction. (Note the final volume of each well was 20 μL containing MgCl2 (10 mM), Brij-35 (0.01%), DTT (2 mM), BSA (0.05%), EGTA (1 mM), HEPE (pH7.5) (50 mM), FLPeptide (1.5 uM), ATP (1 mM) and BTK (2 nM).
The plates were incubated at room temperature for 90 minutes and then stopping buffer added (75 μL, containing 0.5 M EDTA) to terminate the reaction. Samples from each well were analyzed using EZ reader. The % remaining activity was calculated using read conversion ratio (CR) according to the equation: […]
XLFit (equation 201) was used to calculate IC50's by floating both bottom and top.

[4] = plasma, read-out: Mean [plasma]

T1 sequence (Q06187 whole entry): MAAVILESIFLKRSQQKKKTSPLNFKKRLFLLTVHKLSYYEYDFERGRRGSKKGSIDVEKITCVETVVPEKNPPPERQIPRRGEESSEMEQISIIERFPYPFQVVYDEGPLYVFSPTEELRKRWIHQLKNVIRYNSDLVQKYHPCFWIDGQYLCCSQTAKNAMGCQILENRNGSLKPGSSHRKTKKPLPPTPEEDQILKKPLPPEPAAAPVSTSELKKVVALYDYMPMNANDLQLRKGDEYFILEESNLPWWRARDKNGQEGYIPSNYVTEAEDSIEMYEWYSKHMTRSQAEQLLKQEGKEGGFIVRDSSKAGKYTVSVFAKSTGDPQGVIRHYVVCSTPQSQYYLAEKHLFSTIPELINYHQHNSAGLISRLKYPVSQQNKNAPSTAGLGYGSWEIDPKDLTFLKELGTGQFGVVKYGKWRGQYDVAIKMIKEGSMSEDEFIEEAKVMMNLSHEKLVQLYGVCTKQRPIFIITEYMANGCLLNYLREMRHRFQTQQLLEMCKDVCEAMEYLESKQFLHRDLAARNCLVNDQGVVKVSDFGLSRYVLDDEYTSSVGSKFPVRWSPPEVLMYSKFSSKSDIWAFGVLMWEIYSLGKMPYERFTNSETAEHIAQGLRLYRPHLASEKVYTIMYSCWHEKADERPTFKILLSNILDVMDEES

SMILES | IC50 ([2]; Homo sapiens, Ramos) [nM] | IC50 [3] [nM] | also measured
CC#CC(=O)N[C@H]1CCCN(c2c(F)cc(C(N)=O)c3[nH]c(C)c(C)c23)C1 [Branebrutinib, reference compound] | – | – | concentration at 1 h ([1]; brain, read-out: Mean [brain]): 15 ng/g; Kp at 1 h [1]: 0.002; concentration at 1 h [1, 4]: 6820 ng/mL
C=CC(=O)N1CCC(CNc2ncnc(N)c2-c2ccc(Oc3ccccc3)cc2)CC1 [Evobrutinib, reference compound] | – | – | concentration at 1 h ([1]; brain, read-out: Mean [brain]): 11 ng/g; Kp at 1 h [1]: 0.06; concentration at 1 h [1, 4]: 177 ng/mL
C=CC(=O)N1CCc2c(cccc2-c2c(F)cc(C(N)=O)c3[nH]c4c(c23)CC2(CCC2)CC4)C1 [Compound 7-13, 5-(2-acryloyl-1,2,3,4-tetrahydroisoquinolin-5-yl)-6-fluoro-1,2,4,9-tetrahydrospiro[carbazole-3,1′-cyclobutane]-8-carboxamide] | ≥ 100 | 10 to 100 | –
C=CC(=O)N1CCc2c(cccc2-c2cnc(C(N)=O)c3[nH]c4c(c23)CCCC4)C1 [Compound 2-1, 4-(2-acryloyl-1,2,3,4-tetrahydroisoquinolin-5-yl)-6,7,8,9-tetrahydro-5H-pyrido[3,4-b]indole-1-carboxamide] | 10 to 100 | 10 to 100 | –
C=CC(=O)N1CCC=C(c2ccc(C(N)=O)c3[nH]c4c(c23)CC2(CC4)OCCO2)C1 [Compound 6-1, 4′-(1-prop-2-enoyl-3,6-dihydro-2H-pyridin-5-yl)spiro[1,3-dioxolane-2,6′-5,7,8,9-tetrahydrocarbazole]-1′-carboxamide] | 10 to 100 | 10 to 100 | –
CC#CC(=O)N[C@H]1C[C@H](O)CN(c2c(F)cc(C(N)=O)c3[nH]c4c(c23)CCCCC4)C1 [Compound 4-3, 1-((3S,5S)-3-(but-2-ynamido)-5-hydroxypiperidin-1-yl)-2-fluoro-5,6,7,8,9,10-hexahydrocyclohepta[b]indole-4-carboxamide] | 10 to 100 | 10 to 100 | –
C=CC(=O)N[C@H]1C[C@H](F)CN(c2c(F)cc(C(N)=O)c3[nH]c4c(c23)CC2(CC4)CC2)C1 [Compound 7-22, 5-((3S,5S)-3-acrylamido-5-fluoropiperidin-1-yl)-6-fluoro-1,2,4,9-tetrahydrospiro[carbazole-3,1′-cyclopropane]-8-carboxamide] | 10 to 100 | 10 to 100 | –
C=CC(=O)N1CCC[C@H](c2c(F)cc(C(N)=O)c3[nH]c4c(c23)CCC4)C1 [Compound 10-1, (R)-8-(1-acryloylpiperidin-3-yl)-7-fluoro-1,2,3,4-tetrahydrocyclopenta[b]-indole-5-carboxamide] | < 10 | < 10 | –
C=CC(=O)N1CCc2c(cccc2-c2ncc(C(N)=O)c3[nH]c4c(c23)CC2(CC4)CC2)C1 [Compound 7-30, 1′-(2-acryloyl-1,2,3,4-tetrahydroisoquinolin-5-yl)-5′,6′,7′,9′-tetrahydrospiro[cyclopropane-1,8′-pyrido[4,3-b]indole]-4′-carboxamide] | 10 to 100 | < 10 | –
C=CC(=O)N1CCC=C(c2cnc(C(N)=O)c3[nH]c4c(c23)CC(F)(F)CC4)C1 [Compound 2-9, 4-(1-acryloyl-1,2,5,6-tetrahydropyridin-3-yl)-6,6-difluoro-6,7,8,9-tetrahydro-5H-pyrido[3,4-b]indole-1-carboxamide] | 10 to 100 | 10 to 100 | –
C=CC(=O)N1CCc2c(cccc2-c2c(F)cc(C(N)=O)c3[nH]c4c(c23)CC2(CCCO2)CC4)C1 (stereo not drawn) [Compound 7-16, 5-(2-acryloyl-1,2,3,4-tetrahydroisoquinolin-5-yl)-6-fluoro-1,2,4,4′,5′,9-hexahydro-3′H-spiro[carbazole-3,2′-furan]-8-carboxamide] | – | < 10 | IC50 [2]: 10 to 100 nM
C=CC(=O)N1CCC[C@H](c2cnc(C(N)=O)c3[nH]c4c(c23)CCCC4)C1 [Compound 2-3, (R)-4-(1-acryloylpiperidin-3-yl)-6,7,8,9-tetrahydro-5H-pyrido[3,4-b]indole-1-carboxamide] | ≥ 100 | ≥ 100 | –
C=CC(=O)N1CCc2c(cccc2-c2c(F)cc(C(N)=O)c3[nH]c4c(c23)CC2(CC4)CC2)C1 [Compound 7-24, 5-(2-acryloyl-1,2,3,4-tetrahydroisoquinolin-5-yl)-6-fluoro-1,2,4,9-tetrahydrospiro[carbazole-3,1′-cyclopropane]-8-carboxamide] | – | < 10 | IC50 [2]: 10 to 100 nM
C=CC(=O)N1CCC=C(c2c(F)cc(C(N)=O)c3[nH]c4c(c23)CC2(CC4)CC2)C1 [Compound 7-11, 5-(1-acryloyl-1,2,5,6-tetrahydropyridin-3-yl)-6-fluoro-1,2,4,9-tetrahydrospiro[carbazole-3,1′-cyclopropane]-8-carboxamide] | < 10 | < 10 | –
C=CC(=O)N1CCc2c(-c3c(F)cc(C(N)=O)c4[nH]c5c(c34)CC3(CC5)CC3)cccc2[C@@H]1C (atropisomer, axis not shown) [Compound 7-20, 5-((S)-2-acryloyl-1-methyl-1,2,3,4-tetrahydroisoquinolin-5-yl)-6-fluoro-1,2,4,9-tetrahydrospiro[carbazole-3,1′-cyclopropane]-8-carboxamide] | ≥ 100 | ≥ 100 | –
C=CC(=O)N[C@H]1CCCN(c2ncc(C(N)=O)c3[nH]c4c(c23)CCCC4)C1 [Compound 3-4, (S)-1-(3-acrylamidopiperidin-1-yl)-6,7,8,9-tetrahydro-5H-pyrido[4,3-b]indole-4-carboxamide] | ≥ 100 | ≥ 100 | –
C=CC(=O)N1CCC=C(c2ccc(C(N)=O)c3[nH]c4c(c23)CC2(CCC2)CC4)C1 [Compound 7-3, 5-(1-acryloyl-1,2,5,6-tetrahydropyridin-3-yl)-1,2,4,9-tetrahydrospiro[carbazole-3,1′-cyclobutane]-8-carboxamide] | ≥ 100 | ≥ 100 | –
CC#CC(=O)N[C@H]1C[C@H](F)CN(c2c(F)cc(C(N)=O)c3[nH]c4c(c23)CCC4)C1 [Compound 10-8, 8-((3S,5S)-3-(but-2-ynamido)-5-fluoropiperidin-1-yl)-7-fluoro-1,2,3,4-tetrahydrocyclopenta[b]indole-5-carboxamide] | < 10 | < 10 | –
C=CC(=O)Nc1cccc(-c2c(F)cc(C(N)=O)c3[nH]c4c(c23)CCCCC4)c1 [Compound 5-3, 1-(3-acrylamidophenyl)-2-fluoro-5,6,7,8,9,10-hexahydrocyclohepta[b]indole-4-carboxamide] | 10 to 100 | 10 to 100 | –
CC#CC(=O)N[C@@H]1C=C(c2c(F)cc(C(N)=O)c3[nH]c4c(c23)CCC4)CCC1 [Compound 10-3, 8-[(3 S)-3-(but-2-ynoylamino)cyclohexen-1-yl]-7-fluoro-1,2,3,4-tetrahydrocyclopenta[b]indole-5-carboxamide] | < 10 | < 10 | –
C=CC(=O)N1CCC=C(c2ccc(C(N)=O)c3[nH]c4c(c23)CC2(CCCC2)CC4)C1 [Compound 7-5, 5-(1-acryloyl-1,2,5,6-tetrahydropyridin-3-yl)-1,2,4,9-tetrahydrospiro[carbazole-3,1′-cyclopentane]-8-carboxamide] | 10 to 100 | 10 to 100 | –
C=CC(=O)N1CCc2c(cccc2-c2c(C)nc(C(N)=O)c3[nH]c4c(c23)CCCC4)C1 (single isomer, unassigned) [Compound 2-5, 4-(2-acryloyl-1,2,3,4-tetrahydroisoquinolin-5-yl)-3-methyl-6,7,8,9-tetrahydro-5H-pyrido[3,4-b]indole-1-carboxamide] | – | 10 to 100 | IC50 [2]: ≥ 100 nM
C=CC(=O)N1CCCC(c2c(F)cc(C(N)=O)c3[nH]c4c(c23)CCCCC4)C1 (single isomer, unassigned) [Compound 5-7] | – | ≥ 100 | IC50 [2]: ≥ 100 nM

From US20220009920A1 (GB005, Inc., priority 2020, published 2022)
